Results on 16 molecules are retold here after PubChem BioAssay AID248 (DTP/NCI, 2004).

In the assay the test system is L1210 leukemia ip in BDF1 mice, survival T/C. Kind of assay: NCI In Vivo Anticancer Drug Screen. Data for tumor model L1210 Leukemia (intraperitoneal) in B6D2F1 (BDF1) mice. The note with it: endpoint: mean survival time, higher = longer survival. The essentials: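 Value reflects the ratio of survival in compound-treated mice to survival in vehicle-treated controls, with both groups carrying the same transplanted tumor.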

Setting [1] is: dose: 100.0 mg/kg/injection, schedule: Q04DX003 (ip), vehicle: Klucel (hydroxypropylcellulose) (HPC).
The mark [2] stands for this setting: dose: 200.0 mg/kg/injection, schedule: Q04DX003 (ip), vehicle: Klucel (hydroxypropylcellulose) (HPC).
Where [3] appears, read: dose: 400.0 mg/kg/injection, schedule: Q04DX003 (ip), vehicle: Klucel (hydroxypropylcellulose) (HPC).
The mark [4] stands for this setting: dose: 100.0 mg/kg/injection, schedule: Q01DX001 (ip), vehicle: saline.
The mark [5] stands for this setting: dose: 200.0 mg/kg/injection, schedule: Q01DX001 (ip), vehicle: saline.
Where [6] appears, read: dose: 400.0 mg/kg/injection, schedule: Q01DX001 (ip), vehicle: saline.
The mark [7] stands for this setting: dose: 100.0 mg/kg/injection, schedule: Q01DX009 (ip), vehicle: Klucel (hydroxypropylcellulose) (HPC).
The mark [8] stands for this setting: dose: 100.0 mg/kg/injection, schedule: Q04DX002 (ip), vehicle: Klucel (hydroxypropylcellulose) (HPC).
[9] abbreviates: dose: 200.0 mg/kg/injection, schedule: Q01DX009 (ip), vehicle: Klucel (hydroxypropylcellulose) (HPC).
The mark [10] stands for this setting: dose: 200.0 mg/kg/injection, schedule: Q04DX002 (ip), vehicle: Klucel (hydroxypropylcellulose) (HPC).
[11] abbreviates: dose: 400.0 mg/kg/injection, schedule: Q01DX009 (ip), vehicle: Klucel (hydroxypropylcellulose) (HPC).
Where [12] appears, read: dose: 400.0 mg/kg/injection, schedule: Q04DX002 (ip), vehicle: Klucel (hydroxypropylcellulose) (HPC).

Where “and” joins values, the source holds several entries; their conditions need not be identical. Equal values may be shown once. Inconclusive results and toxic doses are left out.

In the case of `CCCOP(=S)(N1CC1(C)C)N1CC1(C)C` (stereo not given), the T/C reads like this: (dose: 3.0 mg/kg/injection, schedule: Q01DX015 (ip), vehicle: carboxymethylcellulose (CMC)) 112 % of control; (dose: 6.0 mg/kg/injection, schedule: Q01DX015 (ip), vehicle: carboxymethylcellulose (CMC)) 105 % of control; (dose: 12.0 mg/kg/injection, schedule: Q01DX015 (ip), vehicle: carboxymethylcellulose (CMC)) 106 % of control; (dose: 25.0 mg/kg/injection, schedule: Q01DX015 (ip), vehicle: carboxymethylcellulose (CMC)) 110 % of control; (dose: 44.0 mg/kg/injection, schedule: Q01DX Z (ip), vehicle: carboxymethylcellulose (CMC)) 103 % of control; (dose: 50.0 mg/kg/injection, schedule: Q01DX015 (ip), vehicle: carboxymethylcellulose (CMC)) 115 % of control. Besides, the T/C was 113 % of control (dose: 67.0 mg/kg/injection, schedule: Q01DX Z (ip), vehicle: carboxymethylcellulose (CMC)); 151 % of control (dose: 100.0 mg/kg/injection, schedule: Q01DX015 (ip), vehicle: carboxymethylcellulose (CMC)); 111 % of control (dose: 100.0 mg/kg/injection, schedule: Q01DX Z (ip), vehicle: carboxymethylcellulose (CMC)); 122 % of control (dose: 150.0 mg/kg/injection, schedule: Q01DX Z (ip), vehicle: carboxymethylcellulose (CMC)).
Regarding `CC(=O)Nc1c(Cl)c(Cl)c(Cl)c2c1-c1ccc(Cl)cc1C2`, the T/C by setting is: (dose: 100.0 mg/kg/injection, schedule: Q01DX001 (ip), vehicle: carboxymethylcellulose (CMC)) 92 % of control; (dose: 200.0 mg/kg/injection, schedule: Q01DX001 (ip), vehicle: carboxymethylcellulose (CMC)) 101 % of control; (dose: 400.0 mg/kg/injection, schedule: Q01DX001 (ip), vehicle: carboxymethylcellulose (CMC)) 97 % of control.
With `O=C(NCCCl)NC1C2CC3CC(C2)CC1C3` (stereo not given), the T/C was 93 % of control (dose: 75.0 mg/kg/injection, schedule: Q01DX001 (ip), vehicle: other); 89 % of control (dose: 150.0 mg/kg/injection, schedule: Q01DX001 (ip), vehicle: other); 89 % of control (dose: 300.0 mg/kg/injection, schedule: Q01DX001 (ip), vehicle: other).
On to `O=C(COc1ccc([N+](=O)[O-])cc1Cl)Nc1cccc(S(=O)(=O)F)c1`, for which the T/C under setting [1] is 98 % of control, the T/C under setting [2] is 106 % of control and the T/C under setting [3] was 91 % of control.
For `O=C(Nc1cccnc1)Nc1ccc(Cl)c(Cl)c1` the same measures were 98 % of control, 93 % of control and 94 % of control.
Regarding `C1CCC(CCCCC2CCC(CCCCC3CCCCC3)CC2)CC1` (stereo not given), the T/C is 91 % of control (dose: 100.0 mg/kg/injection, schedule: Q04DX003 (ip), vehicle: saline with Tween-80); 93 % of control (dose: 200.0 mg/kg/injection, schedule: Q04DX003 (ip), vehicle: saline with Tween-80); 96 % of control (dose: 400.0 mg/kg/injection, schedule: Q04DX003 (ip), vehicle: saline with Tween-80).
Turning to `O=C(O)/C=C\C(=O)Nc1ccc(Cc2ccc(NC(=O)/C=C\C(=O)O)cc2)cc1`, the T/C under setting [4] was 115 % of control; the T/C under setting [1] is 95 % of control; the T/C under setting [5] was 103 % of control; the T/C under setting [2] is 100 % of control; the T/C under setting [6] was 103 % of control; the T/C under setting [3] is 97 % of control.
For the molecule `Cc1cccc(OC(=O)Nc2cccc(Cl)c2)c1C`, the T/C reads like this: (dose: 100.0 mg/kg/injection, schedule: Q01DX001 (ip), vehicle: Klucel (hydroxypropylcellulose) (HPC)) 94 % of control; under setting [7], 94 % of control and 100 % of control; under setting [8], 102 % of control and 105 % of control; under setting [1], 101 % of control; (dose: 200.0 mg/kg/injection, schedule: Q01DX001 (ip), vehicle: Klucel (hydroxypropylcellulose) (HPC)) 92 % of control; under setting [9], 98 % of control and 100 % of control. The T/C by setting is: under setting [10], 96 % of control and 98 % of control; under setting [2], 97 % of control; (dose: 400.0 mg/kg/injection, schedule: Q01DX001 (ip), vehicle: Klucel (hydroxypropylcellulose) (HPC)) 92 % of control; under setting [11], 94 % of control and 96 % of control; under setting [12], 107 % of control and 109 % of control; under setting [3], 93 % of control.
As for `COc1ccc(S(=O)(=O)O)cc1NC(=O)CC(=O)c1cccc([N+](=O)[O-])c1`, the T/C by setting is: under setting [4], 97 % of control; under setting [5], 95 % of control; under setting [6], 100 % of control.
For `O=C(NCO)NCO`, the T/C was 95 % of control (dose: 75.0 mg/kg/injection, schedule: Q01DX001 (ip), vehicle: Klucel (hydroxypropylcellulose) (HPC)); 93 % of control (dose: 150.0 mg/kg/injection, schedule: Q01DX001 (ip), vehicle: Klucel (hydroxypropylcellulose) (HPC)); 97 % of control (dose: 300.0 mg/kg/injection, schedule: Q01DX001 (ip), vehicle: Klucel (hydroxypropylcellulose) (HPC)).
For `CCCCCCCCCCCCCCCC[N+]1(C)CCSCC1`, the T/C is 104 % of control (dose: 0.78 mg/kg/injection, schedule: Q01DX009 (ip), vehicle: saline); 111 % of control (dose: 1.56 mg/kg/injection, schedule: Q01DX009 (ip), vehicle: saline); 114 % of control (dose: 3.13 mg/kg/injection, schedule: Q01DX009 (ip), vehicle: saline); 104 % of control (dose: 6.25 mg/kg/injection, schedule: Q01DX009 (ip), vehicle: saline).
With `CCOC(=O)C(C#N)CCC#N` (stereo not given), the T/C is 113 % of control (dose: 100.0 mg/kg/injection, schedule: Q01DX009 (ip), vehicle: saline with Tween-80); 98 % of control (dose: 200.0 mg/kg/injection, schedule: Q01DX009 (ip), vehicle: saline with Tween-80); 104 % of control (dose: 400.0 mg/kg/injection, schedule: Q01DX009 (ip), vehicle: saline with Tween-80).
With `Cc1nc(C(N)=O)c(=O)[nH]c1C`, the T/C is 95 % of control (dose: 6.25 mg/kg/injection, schedule: Q04DX003 (ip), vehicle: saline); 97 % of control (dose: 12.5 mg/kg/injection, schedule: Q04DX003 (ip), vehicle: saline); 94 % of control (dose: 25.0 mg/kg/injection, schedule: Q04DX003 (ip), vehicle: saline); 101 % of control (dose: 50.0 mg/kg/injection, schedule: Q04DX003 (ip), vehicle: saline); 102 % of control under setting [1]; 100 % of control under setting [2]. Further, under setting [3], the T/C was 100 % of control.
For `O=C(Nc1cc(C(F)(F)F)ccc1Cl)OCC(F)(F)F`, the T/C reads like this: under setting [7], 97 % of control and 104 % of control; under setting [8], 108 % of control and 91 % of control; under setting [9], 105 % of control and 112 % of control; under setting [10], 103 % of control and 104 % of control; under setting [11], 94 % of control and 108 % of control; under setting [12], 103 % of control and 107 % of control.
For the molecule `CC(C)OC(=O)Nc1cccc(NC(=O)OCCCl)c1`, the T/C (dose: 100.0 mg/kg/injection, schedule: Q04DX002 (ip), vehicle: saline with Tween-80) is 97 % of control; the T/C (dose: 200.0 mg/kg/injection, schedule: Q04DX002 (ip), vehicle: saline with Tween-80) is 101 % of control; the T/C (dose: 400.0 mg/kg/injection, schedule: Q04DX002 (ip), vehicle: saline with Tween-80) is 97 % of control.
Turning to `CN(C)/N=N\N(C)C`, the T/C is, setting by setting: (dose: 25.0 mg/kg/injection, schedule: Q01DX009 (ip), vehicle: Klucel (hydroxypropylcellulose) (HPC)) 98 % of control; (dose: 50.0 mg/kg/injection, schedule: Q01DX009 (ip), vehicle: Klucel (hydroxypropylcellulose) (HPC)) 103 % of control; under setting [7], 101 % of control.
